Test results reported in patent US9845460B2, “Treatment of pluripotent cells” (Janssen Biotech, Inc., priority 2008, dated 2017).
Where “and” joins values, the source holds several entries; their conditions need not be identical. Equal values may be shown once.

Key:
[1] = test system: human embryonic stem cells (H9 line); assay: High content screening assay: total cell number (proliferative response); assay type: cell-based
Experimental: (§1) Maintenance of human embryonic stem cells (H9 line) was conducted as described in Example 1. Colonies of cells were maintained in an undifferentiated, pluripotent state with passage on average every four days. Passage was performed by exposing cell cultures to a solution of collagenase (1 mg/ml; Sigma-Aldrich) for 10 to 30 minutes at 37° C. followed by gentle scraping with a pipette tip to recover cell clusters. Clusters were allowed to sediment by gravity, followed by washing to remove residual collagenase. Cell clusters were split at a 1:3 ratio for routine maintenance culture or a 1:1 ratio for immediate assay. The human embryonic stem cell lines used were maintained at passage numbers less than passage 50 and routinely evaluated for normal karyotypic phenotype and absence of mycoplasma contamination.
(§2) Cell clusters used in the assay were evenly resuspended in normal culture medium and plated onto MATRIGEL-coated 96-well Packard VIEWPLATES (PerkinElmer) in volumes of 100 μl/well. MEF conditioned medium supplemented with 8 ng/ml bFGF was used for initial plating and recovery. Daily feeding was conducted by aspirating spent culture medium from each well and replacing with an equal volume of fresh medium. Plates were maintained at 37° C., 5% CO2 in a humidified box throughout the duration of assay.
Screening was conducted using test compounds from a proprietary library of small molecules selected for their ability to inhibit GSK-3B enzyme activity. Compounds from this library were made available as 1 mM stocks, in a 96-well plate format in 50 mM HEPES, 30% DMSO. Screening compounds were tested in triplicate or duplicate sets. Primary screening assays were initiated by aspirating culture medium from each well followed by three washes in PBS to remove residual growth factors and serum. Test volumes of 80 to 100 μl per well were added back containing DMEM:F12 base medium (Invitrogen) supplemented with 0.5% FCS (HyClone) and 100 ng/ml activin A (R&D Biosystems) plus […] test compound. Positive control wells contained the same base medium, substituting 10-20 ng/ml Wnt3a (R&D Biosystems) for the test compound. Negative control wells contained base medium with 0.5% FCS and activin A alone (AA only) or alternatively, 0.5% FCS without activin A or Wnt3a (no treatment). Wells were aspirated and fed again with identical solutions on day 2 of assay. On days 3 and 4, all assay wells were aspirated and converted to DMEM:F12 supplemented with 2% FCS and 100 ng/ml activin A (without test compound or Wnt3a); parallel negative control wells were maintained in DMEM:F12 base medium with 2% FCS and activin A (AA only) or alternatively, 2% FCS without activin A (no treatment). […]

[2] = test system: human embryonic stem cells (H9 or H1 lines); assay: Plate reader assay (MTS, OD490): proliferation of human embryonic stem cells; assay type: cell-based
Experimental: Maintenance of human embryonic stem cells (H9 or H1 lines) was conducted as described in Example 1. Colonies of cells were maintained in an undifferentiated, pluripotent state with passage on average every four days. Passage was performed by exposing cell cultures to a solution of collagenase (1 mg/ml; Sigma-Aldrich) for 10 to 30 minutes at 37° C. followed by gentle scraping with a pipette tip to recover cell clusters. Clusters were allowed to sediment and washed to remove residual collagenase. Cell clusters were split at a ratio of 1:3 monolayer area for routine culture or a 1:1 ratio for immediate assay. The human embryonis stem cell lines used for these examples were maintained at passage numbers less than 50 and routinely evaluated for normal karyotypic phenotype as well as absence of mycoplasm contamination.
as §2, with “in” for “in the”, “into” for “onto”, “bFGF)” for “bFGF”, “C.” for “C., 5% CO2”, “box, 5% CO2” for “box”
Primary screening assays were initiated by aspirating culture medium from each well followed by three washes in PBS to remove residual growth factors and serum. Test volumes of 80-100 μl per well were added back containing DMEM:F12 base medium (Invitrogen) supplemented with 0.5% FCS (HyClone) and 100 ng/ml activin A (R&D Biosystems) and 10 μM test compound. […]
On day 4 of assay, […] of MTS (Promega) was added to each well and plates were incubated at 37° C. for 1.5 to 4 hours. Densitometric readings at OD490 were determined using a Molecular Devices spectrophotometer plate reader. Average readings for replicate sets were calculated along with standard deviation and coefficient of variation. […]

[3] = test system: Sox17; assay: High content screening assay: Sox17 protein expression (total intensity); assay type: cell-based, human
Experimental: as §1
as §2, with “assay. […]” for “assay.”

[4] = test system: cells expressing pluripotency markers; assay: Viability (MTS, OD 490 nm) of cells expressing pluripotency markers treated with GSK-3B inhibitors; assay type: cell-based, human; details: for Raw data (duplicate): optical density at 490 nm (MTS), single wells
Experimental: Derivation and maintenance of cells expressing pluripotency makers was conducted as has been described in Example 2. Cells were grown in DMEM:F12 supplemented with 2% FCS (Invitrogen), 100 ng/ml Activin A, 20 ng/ml Wnt-3a, and 50 ng/ml IGF (R&D Biosystems). Cells were seeded at a density of 10,000 cells/cm^2 on Falcon polystyrene flasks and grown in monolayer culture at 37° C., 5% CO2, low oxygen. After reaching 60-70% confluence, cells were passed by washing the monolayer with PBS and incubating with TrypLE (Invitrogen) for 3-5 minutes to allow detachment and single cell dispersal.
Screening was conducted using test compounds from a proprietary library of small molecules selected for their ability to inhibit GSK-3B enzyme activity. Compounds from this library were made available as 1 mM stocks, in a 96-well plate format in 50 mM HEPES, 30% DMSO. For assay, cells expressing pluripotency markers were washed, counted, and plated in normal culture medium at a seeding density of 20,000 cells per well in 96-well clear-bottom, dark-well plates (Costar). This seeding density was previously determined to yield optimal monolayer formation in overnight culture. On the following day, culture medium was removed, cell monolayers were rinsed three times with PBS, and test compounds were added to the wells in 80 μl aliquots, each diluted into assay medium at a final assay concentration of 10 μM. On day 2 of the assay, medium was removed from each well and replaced with a fresh aliquot of test compounds diluted into assay medium. Assay medium on days 1 and 2 of culture consisted of DMEM:F12 supplemented with 0.5% FCS and 100 ng/ml Activin A. On days 3 and 4 of culture, medium was removed from each well and replaced with DMEM:F12 supplemented with 2% FCS and 100 ng/ml Activin A (no test compound). On day 4 of assay, 15 μl of MTS (Promega) was added to each well and plates were incubated at 37° C. for 1.5 to 4 hours prior to reading optical density at 490 nm on a SpectraMax (Molecular Devices) instrument. Statistical measures consisting of mean, standard deviation, and coefficient of variation were calculated for each duplicate set. Toxicity was calculated for each test well relative to a positive control (wells treated with Activin A and Wnt3a on days 1 and 2 of culture).
A larger proportion of the compounds have minimal or no measurable toxicity in this cell-based assay.
A small panel of select compounds was repeat tested over a narrow dose titration range, again using cells expressing pluripotency markers in a similar assay as described above.

[5] = test system: HNF-3beta; assay: High content screening assay: HNF-3beta protein expression (total intensity); assay type: cell-based, human
Experimental: as §1
as §2, with “assay. […]” for “assay.”

[6] = total intensity normalized to Wnt3a/Activin A positive control

## OCCC#Cc1nc(-c2ccc(F)cc2)c(-c2ccncc2)n1CCCc1ccccc1 [RWJ67657]
[1]; total cell number in wells stained for HNF-3b
  Proliferative Response Total cells (HNF-3b Expression set): 6058
[1]; total cell number in wells stained for SOX-17
  Proliferative Response Total cells (SOX-17 Expression set): 6376
[1]; total cells normalized to Wnt3a/Activin A positive control, wells stained for HNF-3b
  Proliferative Response Fold over Wnt 3a/AA control (HNF-3b Expression set): 0.3852 Fold over Wnt 3a/AA control
[1]; total cells normalized to Wnt3a/Activin A positive control, wells stained for SOX-17
  Proliferative Response Fold over Wnt 3a/AA control (SOX-17 Expression set): 0.4162 Fold over Wnt 3a/AA control
[2]; 10 μM test compound, MTS OD490 on day 4, relative to Activin A/Wnt3a positive control
  % Control Value: 84.7%
[2]; mean of replicate raw plate-reader readings (MTS, OD490), proliferation of human embryonic stem cells
  Average (of Raw Data): 1.2242
[2]; relative to the AA/Wnt3a/DMSO positive control of the same plate (= 100.0)
  % Control: 84.7%
[3]; total intensity
  SOX-17 Expression Total Intensity: 324450000
[3]; [6]
  SOX-17 Expression Fold over Wnt 3a/AA control: 0.3336 Fold over Wnt 3a/AA control
[4]; MTS viability readout, average of duplicate raw data
  Average: 0.644
[4]; MTS viability readout, first of duplicate wells
  Raw data (duplicate), first value: 0.629
[4]; MTS viability readout, second of duplicate wells
  Raw data (duplicate), second value: 0.659
[4]; cmpd conc 2.5 uM, mean optical density at 490 nm (MTS) of duplicate
  Average: 0.7971
[4]; cmpd conc 2.5 uM
  Raw data (duplicate): 0.8041 and 0.7900
[4]; cmpd conc 2.5 uM, viability relative to AA + Wnt3a positive control, MTS day 4
  % Control: 93.2%
[4]; cmpd conc 5 uM, mean optical density at 490 nm (MTS) of duplicate
  Average: 0.8183
[4]; cmpd conc 5 uM
  Raw data (duplicate): 0.8047 and 0.8319
[4]; cmpd conc 5 uM, viability relative to AA + Wnt3a positive control, MTS day 4
  % Control: 96.2%
[4]; cmpd conc 10 uM, mean optical density at 490 nm (MTS) of duplicate
  Average: 0.6052
[4]; cmpd conc 10 uM
  Raw data (duplicate): 0.6195 and 0.5908
[4]; cmpd conc 10 uM, viability relative to AA + Wnt3a positive control, MTS day 4
  % Control: 66.5%
[4]; viability as % of control
  % Control: 77.7%
[5]; total intensity
  HNF-3b Expression Total Intensity: 269025000
[5]; [6]
  HNF-3b Expression Fold over Wnt 3a/AA control: 0.2428 Fold over Wnt 3a/AA control

B1: AA only: control wells with base medium, FCS and activin A alone (protein, UniProt P08476 311-426, looked up)
Inhibin beta A chain: GLECDGKVNICCKKQFFVSFKDIGWNDWIIAPSGYHANYCEGECPSHIAGTSGSSLSFHSTVINHYRMRGHSPFANLKSCCVPTKLRPMSMLYYDDGQNIIKKDIQNMIVEECGCS
[4]; control wells without test compound, mean optical density at 490 nm (MTS)
  Average: 0.8889 and 0.7861
[4]; control wells without test compound
  Raw data (duplicate): 0.8732 and 0.9046 and 0.7674 and 0.8047
[4]; control wells without test compound, relative to AA + Wnt3a
  % Control: 106.0% and 98.3%
